Data from BindingDB's records for doi:10.1016/0028-3908(96)84644-2 (Abbott Laboratories, 1996).
Several values for one entry are separate records, joined by “and”; a condition that tells them apart may be missing. Equal values may be shown once.

What was measured:
[1] = target: Acetylcholine receptor subunit alpha (Rattus norvegicus, UniProt P25108)
[2] = target: Gamma-aminobutyric acid type B receptor subunit 1 (Homo sapiens, UniProt Q9UBS5)
[3] = target: Delta-type opioid receptor (Homo sapiens, UniProt P41143)
[4] = target: Sodium-dependent noradrenaline transporter (Homo sapiens, UniProt P23975)
[5] = target: Mu-type opioid receptor (Rattus norvegicus, UniProt P33535)
[6] = target: Kappa-type opioid receptor (Homo sapiens, UniProt P41145)
[7] = target: Sodium channel protein type 2 subunit alpha (Homo sapiens, UniProt Q99250)
[8] = target: ATP-sensitive inward rectifier potassium channel 11 (Homo sapiens, UniProt Q14654)
Chain of ATP-sensitive inward rectifier potassium channel 11 (Q14654 as listed by the source): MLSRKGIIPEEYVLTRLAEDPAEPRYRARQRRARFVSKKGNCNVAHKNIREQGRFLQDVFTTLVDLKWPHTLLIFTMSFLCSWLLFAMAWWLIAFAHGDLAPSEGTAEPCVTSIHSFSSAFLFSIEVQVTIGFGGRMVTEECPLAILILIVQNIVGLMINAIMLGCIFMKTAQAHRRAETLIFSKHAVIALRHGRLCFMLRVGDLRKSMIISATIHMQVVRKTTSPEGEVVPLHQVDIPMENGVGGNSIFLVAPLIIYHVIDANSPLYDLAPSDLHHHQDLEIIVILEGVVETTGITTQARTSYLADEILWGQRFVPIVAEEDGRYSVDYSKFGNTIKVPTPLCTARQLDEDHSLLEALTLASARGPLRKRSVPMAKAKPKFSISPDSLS

[9] = target: Glutamate receptor ionotropic, kainate 2 (Homo sapiens, UniProt Q13002)
[10] = target: Putative choline uptake ABC transporter permease protein (Rhizobium meliloti (strain 1021), UniProt Q92V96)
[11] = target: GLRA1 protein (Homo sapiens, UniProt Q14C71)
[12] = target: Apamin (Apis mellifera, UniProt P01500)
[13] = target: 5-hydroxytryptamine receptor 1A (Homo sapiens, UniProt P08908)
[14] = target: Protein kinase C (Drosophila melanogaster, UniProt P13678)
Chain of Protein kinase C (P13678 whole entry): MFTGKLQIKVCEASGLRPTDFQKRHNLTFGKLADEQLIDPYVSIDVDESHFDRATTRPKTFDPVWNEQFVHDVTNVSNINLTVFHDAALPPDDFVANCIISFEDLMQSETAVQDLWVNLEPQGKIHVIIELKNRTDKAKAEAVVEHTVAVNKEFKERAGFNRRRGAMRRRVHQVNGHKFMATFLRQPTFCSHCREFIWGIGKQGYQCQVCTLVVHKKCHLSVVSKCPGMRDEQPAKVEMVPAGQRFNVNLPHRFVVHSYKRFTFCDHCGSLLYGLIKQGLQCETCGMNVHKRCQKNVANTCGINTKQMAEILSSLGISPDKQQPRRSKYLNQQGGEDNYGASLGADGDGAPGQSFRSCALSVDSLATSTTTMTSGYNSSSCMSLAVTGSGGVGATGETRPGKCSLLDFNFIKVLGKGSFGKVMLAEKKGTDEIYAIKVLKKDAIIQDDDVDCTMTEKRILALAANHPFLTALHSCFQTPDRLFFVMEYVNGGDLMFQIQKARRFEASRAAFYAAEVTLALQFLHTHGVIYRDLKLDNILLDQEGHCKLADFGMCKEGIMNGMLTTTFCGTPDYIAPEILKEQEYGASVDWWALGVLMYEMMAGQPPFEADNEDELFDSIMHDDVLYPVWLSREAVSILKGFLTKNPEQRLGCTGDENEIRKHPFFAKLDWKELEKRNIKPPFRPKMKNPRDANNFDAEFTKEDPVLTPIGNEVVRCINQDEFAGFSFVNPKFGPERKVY

[15] = target: 5-hydroxytryptamine receptor 2C (Homo sapiens, UniProt P28335)
[16] = target: Solute carrier family 22 member 1 (Rattus norvegicus, UniProt Q63089)
[17] = target: Beta-2 adrenergic receptor (Mus musculus, UniProt P18762)
[18] = target: 5-hydroxytryptamine receptor 1A/1B/1D/2C (Homo sapiens, UniProt P08908+P28221+P28222+P28335)
[19] = target: Voltage-dependent T-type calcium channel subunit alpha-1H (Homo sapiens, UniProt O95180)
[20] = target: Neuronal acetylcholine receptor subunit alpha-7 (Homo sapiens, UniProt P36544)
Chain of Neuronal acetylcholine receptor subunit alpha-7 (P36544 whole entry): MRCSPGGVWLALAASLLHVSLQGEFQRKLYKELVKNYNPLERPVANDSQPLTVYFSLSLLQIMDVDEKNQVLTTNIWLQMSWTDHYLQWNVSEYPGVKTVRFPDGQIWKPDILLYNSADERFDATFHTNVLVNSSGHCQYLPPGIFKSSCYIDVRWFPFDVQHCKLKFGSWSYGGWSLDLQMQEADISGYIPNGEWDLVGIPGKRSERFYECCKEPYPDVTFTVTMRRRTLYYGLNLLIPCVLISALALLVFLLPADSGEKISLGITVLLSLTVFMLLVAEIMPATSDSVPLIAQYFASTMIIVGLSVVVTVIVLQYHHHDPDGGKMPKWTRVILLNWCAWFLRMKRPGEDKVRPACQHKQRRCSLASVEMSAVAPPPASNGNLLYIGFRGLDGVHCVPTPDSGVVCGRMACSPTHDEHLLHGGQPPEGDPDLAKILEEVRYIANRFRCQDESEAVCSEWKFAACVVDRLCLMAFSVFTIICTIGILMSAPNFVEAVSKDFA

[21] = target: Glutamate receptor 3 (Homo sapiens, UniProt P42263)
[22] = target: Somatostatin (Rattus norvegicus, UniProt P60042)
[23] = target: Chloride channel protein 1 (Homo sapiens, UniProt P35523)
[24] = target: Voltage-dependent N-type calcium channel subunit alpha-1B (Rattus norvegicus, UniProt Q02294)
[25] = target: Potassium voltage-gated channel subfamily A member 1 (Homo sapiens, UniProt Q09470)
[26] = target: Adrenergic alpha2 receptor (Mesocricetus auratus, UniProt Q60533)
[27] = target: Glutamate receptor ionotropic, NMDA 1 (Rattus norvegicus, UniProt P35439)
[28] = target: Gamma-aminobutyric acid receptor subunit alpha-1 (Homo sapiens, UniProt P14867)
Chain of Gamma-aminobutyric acid receptor subunit alpha-1 (P14867 whole entry): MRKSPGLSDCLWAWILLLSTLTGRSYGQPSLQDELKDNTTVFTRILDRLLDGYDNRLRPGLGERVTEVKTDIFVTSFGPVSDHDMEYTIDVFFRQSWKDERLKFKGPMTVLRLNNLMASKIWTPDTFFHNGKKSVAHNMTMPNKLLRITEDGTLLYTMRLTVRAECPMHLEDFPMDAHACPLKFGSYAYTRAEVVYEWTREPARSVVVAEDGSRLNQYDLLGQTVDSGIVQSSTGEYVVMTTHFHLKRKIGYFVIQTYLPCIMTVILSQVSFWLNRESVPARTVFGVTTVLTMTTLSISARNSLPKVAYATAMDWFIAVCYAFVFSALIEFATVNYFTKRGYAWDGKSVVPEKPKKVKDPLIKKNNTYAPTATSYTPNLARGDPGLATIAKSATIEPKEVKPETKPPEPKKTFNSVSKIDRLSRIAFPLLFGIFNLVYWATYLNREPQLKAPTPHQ

[29] = target: Adenosine receptor A1 (Homo sapiens, UniProt P30542)
Chain of Adenosine receptor A1 (P30542 whole entry): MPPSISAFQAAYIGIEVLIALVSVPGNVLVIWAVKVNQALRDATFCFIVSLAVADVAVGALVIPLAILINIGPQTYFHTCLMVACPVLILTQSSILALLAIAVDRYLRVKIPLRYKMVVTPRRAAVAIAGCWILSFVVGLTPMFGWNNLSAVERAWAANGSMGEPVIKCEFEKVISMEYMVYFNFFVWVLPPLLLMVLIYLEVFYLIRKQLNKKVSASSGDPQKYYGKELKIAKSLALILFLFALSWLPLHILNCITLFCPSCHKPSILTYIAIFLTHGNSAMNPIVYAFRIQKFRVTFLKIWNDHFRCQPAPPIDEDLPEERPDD

[30] = target: Substance-K receptor (Bos taurus, UniProt P05363)
[31] = target: 5-hydroxytryptamine receptor 1B (Canis lupus familiaris, UniProt P79250)
[32] = target: Sodium-dependent dopamine transporter (Homo sapiens, UniProt Q01959)
[33] = target: Substance-P receptor (Homo sapiens, UniProt P25103)
[34] = target: Neuronal acetylcholine receptor subunit alpha-4 (Homo sapiens, UniProt P43681)
Chain of Neuronal acetylcholine receptor subunit alpha-4 (P43681 whole entry): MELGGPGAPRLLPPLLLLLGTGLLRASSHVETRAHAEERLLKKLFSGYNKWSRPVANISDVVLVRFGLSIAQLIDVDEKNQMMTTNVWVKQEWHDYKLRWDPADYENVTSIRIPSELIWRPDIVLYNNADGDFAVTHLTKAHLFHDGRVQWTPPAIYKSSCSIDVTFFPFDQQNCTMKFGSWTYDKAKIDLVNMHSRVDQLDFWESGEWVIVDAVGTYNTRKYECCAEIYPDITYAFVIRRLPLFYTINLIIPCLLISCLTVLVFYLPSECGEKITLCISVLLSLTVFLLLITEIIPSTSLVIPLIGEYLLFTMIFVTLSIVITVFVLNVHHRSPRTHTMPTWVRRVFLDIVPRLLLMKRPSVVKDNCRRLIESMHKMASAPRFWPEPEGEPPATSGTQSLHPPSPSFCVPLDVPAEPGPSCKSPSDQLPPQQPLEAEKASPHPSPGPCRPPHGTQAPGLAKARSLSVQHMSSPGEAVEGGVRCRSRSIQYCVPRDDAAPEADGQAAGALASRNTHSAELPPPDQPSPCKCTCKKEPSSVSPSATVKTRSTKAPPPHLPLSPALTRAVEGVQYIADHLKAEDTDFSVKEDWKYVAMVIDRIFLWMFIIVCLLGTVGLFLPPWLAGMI

[35] = target: Neuromedin-K receptor (Homo sapiens, UniProt P29371)
[36] = target: Gamma-aminobutyric acid type B receptor subunit 1 (UniProt Q9Z0U4)
[37] = target: Beta-nerve growth factor (Homo sapiens, UniProt P01138)
[38] = target: Adenosine receptor A2a (Homo sapiens, UniProt P29274)
[39] = target: D(2) dopamine receptor (Homo sapiens, UniProt P14416)
Chain of D(2) dopamine receptor (P14416 whole entry): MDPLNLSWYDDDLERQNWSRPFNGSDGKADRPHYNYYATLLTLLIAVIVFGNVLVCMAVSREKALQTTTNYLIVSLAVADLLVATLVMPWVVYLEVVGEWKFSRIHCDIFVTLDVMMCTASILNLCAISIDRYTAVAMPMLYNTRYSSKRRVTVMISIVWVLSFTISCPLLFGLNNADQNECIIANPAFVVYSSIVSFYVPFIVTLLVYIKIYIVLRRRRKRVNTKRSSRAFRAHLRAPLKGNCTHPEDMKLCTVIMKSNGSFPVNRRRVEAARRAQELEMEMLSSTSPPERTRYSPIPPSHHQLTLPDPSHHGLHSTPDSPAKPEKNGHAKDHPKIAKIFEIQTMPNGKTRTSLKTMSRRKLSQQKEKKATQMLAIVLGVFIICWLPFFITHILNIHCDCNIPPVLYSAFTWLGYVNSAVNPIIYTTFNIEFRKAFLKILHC

Chain of Acetylcholine receptor subunit alpha (P25108 whole entry): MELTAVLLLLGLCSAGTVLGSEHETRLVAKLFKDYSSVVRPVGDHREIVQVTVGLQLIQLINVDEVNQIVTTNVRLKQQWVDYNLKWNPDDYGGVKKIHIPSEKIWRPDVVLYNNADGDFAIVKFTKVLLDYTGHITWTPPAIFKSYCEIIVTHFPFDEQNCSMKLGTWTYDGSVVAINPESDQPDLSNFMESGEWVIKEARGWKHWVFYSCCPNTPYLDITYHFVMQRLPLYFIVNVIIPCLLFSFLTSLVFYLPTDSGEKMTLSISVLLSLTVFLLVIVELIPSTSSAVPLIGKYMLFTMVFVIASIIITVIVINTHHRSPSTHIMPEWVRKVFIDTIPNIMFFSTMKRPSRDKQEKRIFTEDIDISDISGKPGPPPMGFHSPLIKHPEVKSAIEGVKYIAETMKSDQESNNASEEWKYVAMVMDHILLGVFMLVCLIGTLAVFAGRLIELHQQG
Chain of Gamma-aminobutyric acid type B receptor subunit 1 (Homo sapiens, UniProt Q9UBS5) (Q9UBS5 whole entry): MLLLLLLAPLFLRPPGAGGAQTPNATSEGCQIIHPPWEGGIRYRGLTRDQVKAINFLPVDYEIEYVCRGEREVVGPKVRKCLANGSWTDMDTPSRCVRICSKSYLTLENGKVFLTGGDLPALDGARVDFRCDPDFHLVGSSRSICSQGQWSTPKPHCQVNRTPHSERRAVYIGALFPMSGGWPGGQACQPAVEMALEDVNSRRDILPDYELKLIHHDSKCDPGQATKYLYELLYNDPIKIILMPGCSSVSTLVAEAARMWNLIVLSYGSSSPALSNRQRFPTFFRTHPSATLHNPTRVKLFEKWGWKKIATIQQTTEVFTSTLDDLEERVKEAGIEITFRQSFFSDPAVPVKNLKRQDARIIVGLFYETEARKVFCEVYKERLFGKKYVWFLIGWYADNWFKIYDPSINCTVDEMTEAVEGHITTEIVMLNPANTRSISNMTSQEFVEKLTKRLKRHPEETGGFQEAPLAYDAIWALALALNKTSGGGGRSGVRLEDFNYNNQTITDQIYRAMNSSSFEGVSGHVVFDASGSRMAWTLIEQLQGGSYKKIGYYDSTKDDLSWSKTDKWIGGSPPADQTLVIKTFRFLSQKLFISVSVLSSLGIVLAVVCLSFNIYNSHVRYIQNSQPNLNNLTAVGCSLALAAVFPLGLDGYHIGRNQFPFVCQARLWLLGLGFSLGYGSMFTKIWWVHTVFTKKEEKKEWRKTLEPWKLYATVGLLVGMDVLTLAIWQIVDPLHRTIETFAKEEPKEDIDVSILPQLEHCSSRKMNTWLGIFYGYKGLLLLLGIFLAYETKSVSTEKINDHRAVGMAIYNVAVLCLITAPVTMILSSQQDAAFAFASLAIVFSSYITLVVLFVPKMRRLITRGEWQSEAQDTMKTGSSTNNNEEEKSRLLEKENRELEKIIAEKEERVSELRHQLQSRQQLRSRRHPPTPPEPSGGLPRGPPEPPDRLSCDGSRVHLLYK

In the case of `CN1CCC[C@H]1c1cccnc1` [(R,S)-nicotine], the Ki [1] is reported as over 10 µM.
`c1cncc(OC[C@@H]2CCN2)c1` showed a Ki [2] of over 10 µM, a Ki [3] of over 10 µM and a Ki [4] of over 10 µM. The Ki [5] was over 10 µM, the Ki [6] was over 10 µM and the Ki [7] was over 10 µM. For the same compound, the Ki [8] was over 10 µM, the Ki [9] was over 10 µM and the Ki [10] was over 10 µM. The Ki [11] was over 10 µM, the Ki [12] was over 10 µM and the Ki [13] was over 10 µM. For the same compound, the Ki [14] was over 10 µM, the Ki [15] was over 10 µM and the Ki [16] was over 10 µM. It also gave a Ki [17] of over 10 µM, a Ki [18] of over 10 µM and a Ki [19] of over 10 µM. The Ki [20] was 1.27 µM and 0.148 µM, the Ki [21] was over 10 µM and the Ki [22] was over 10 µM. The Ki [23] was over 10 µM, the Ki [24] was over 10 µM and the Ki [25] was over 10 µM. The Ki [26] was over 10 µM, the Ki [27] was over 10 µM and the Ki [28] was over 10 µM. For the same compound, the Ki [29] was over 10 µM, the Ki [30] was over 10 µM and the Ki [31] was over 10 µM. For the same compound, the Ki [32] was over 10 µM, the Ki [33] was over 10 µM and the Ki [34] was 0.04 nM. The Ki [35] was over 10 µM, the Ki [36] was over 10 µM and the Ki [37] was over 10 µM. For the same compound, the Ki [38] was over 10 µM, the Ki [1] was 0.384 µM and 0.314 µM and the Ki [39] was over 10 µM.
